The values that follow come from patent publication US11976073B2, “Bicyclic amines as CDK2 inhibitors” (Incyte Corporation, priority 2021, dated 2024).

SMILES strings stand for the structures.

One experiment deals with T1, CDK2/Cyclin E1 (Homo sapiens, UniProt P24941).
T1 construct: utilize full-length human CDK2 co-expressed as N-terminal GST-tagged protein; GST (N); purchased Carna 04-165; host or cells: baculovirus expression system
As to the kind of experiment: CDK2/Cyclin E1 HTRF enzyme activity assay. Format: biochemical. Particulars: 1 mM ATP. As for the experimental part:
Example A. CDK2/Cyclin E1 HTRF Enzyme Activity Assay
CDK2/Cyclin E1 enzyme activity assays utilize full-length human CDK2 co-expressed as N-terminal GST-tagged protein with FLAG-Cyclin E1 in a baculovirus expression system (Carna Product Number 04-165). Assays were conducted in white 384-well polystyrene plates in a final reaction volume of 8 μL. CDK2/Cyclin E1 (0.25 nM) was incubated with the compounds of the Examples (40 nL serially diluted in DMSO) in the presence of ATP (50 μM or 1 mM) and 50 nM ULight™-labeled eIF4E-binding protein 1 (THR37/46) peptide (PerkinElmer) in assay buffer (containing 50 mM HEPES pH 7.5, 1 mM EGTA, 10 mM MgCl2, 2 mM DTT, 0.05 mg/mL BSA, and 0.01% Tween 20) for 60 minutes at room temperature. The reactions were stopped by the addition of EDTA and Europium-labeled anti-phospho-4E-BP1 antibody (PerkinElmer), for a final concentration of 15 mM and 1.5 nM, respectively. HTRF signals were read after 1 hour at room temperature on a PHERAstar FS plate reader (BMG Labtech). Data was analyzed with IDBS XLFit and GraphPad Prism 5.0 software using a three or four parameter dose response curve to determine IC50 for each compound.

A further experiment has as its target CDK2 (Homo sapiens, UniProt P24941). As to the kind of experiment: Enzymatic binding data against CDK2 (comparison of isomeric peaks). The conditions noted are these: Peak 1 vs Peak 2 of Example 2, TFA salts. In kind it is biochemical. As for the experimental part: To a solution of 6-(1-(1-ethoxyethyl)-1H-pyrazol-4-yl)-5-(1-(trifluoromethyl)cyclobutoxy)-[1,2,4]triazolo[…] (20 mg, 0.05 mmol) and 4-(methylsulfonyl)cyclohexan-1-one (26 mg, 0.15 mmol) in DCE (0.8 mL) was added TFA (0.2 mL) and sodium triacetoxyborohydride (31 mg, 0.15 mmol) and the resulting solution was stirred at 60° C. After 4 h, a second aliquot of 4-(methylsulfonyl)cyclohexan-1-one (13 mg, 0.08 mmol) and sodium triacetoxyborohydride (15 mg, 0.08 mmol) was added and stirring was continued overnight at 60° C. The volatiles were removed and the residue was dissolved in CH3CN and purified by prep-HPLC (Sunfire C18 column, eluting with a gradient of 21% to 39% acetonitrile/water containing 0.1% TFA over 12 minutes at a flow rate of 60 mL/min) to afford two isomeric peaks as their TFA salts. Peak 1 eluted at 8.8 min and Peak 2 eluted at 9.9 min. […] LC-MS calculated for C20H25F3N7O3S (M+H)^+: m/z=500.2; found 500.2.

`CS(=O)(=O)C1CCC(Nc2nc3cnc(-c4cn[nH]c4)c(OC4(C(F)(F)F)CCC4)n3n2)CC1` (single isomer, unassigned) [Example 2, N-(4-(Methylsulfonyl)cyclohexyl)-6-(1H-pyrazol-4-yl)-5-(1-(trifluoromethyl)cyclobutoxy)-[1,2,4]triazolo[1,5-a]pyrazin-2-amine] showed a 50% inhibitory concentration (IC50) against CDK2/Cyclin E1 of at most 10 nM. Besides, on CDK2, the “relative activity of the isomeric peaks against CDK2” value is on record as “more active isomer”.

Compound `CC(C)Oc1c(-c2cn[nH]c2)ncn2nc(NC3CCC(S(C)(=O)=O)CC3)nc12` (single isomer, unassigned) [Example 1, 8-Isopropoxy-N-(4-(methylsulfonyl)cyclohexyl)-7-(1H-pyrazol-4-yl)-[1,2,4]triazolo[1,5-c]pyrimidin-2-amine] came in with an IC50 against CDK2/Cyclin E1 of at most 10 nM.
